Assays:
Type in all cases: cell-based
[1] = target: T1, mouse TLR7 (Mus musculus, UniProt P58681); experiment: HEK293-mouseTLR7 SEAP reporter assay (Example 8); settings: HEK293-mTLR7 SEAP reporter cells, 24 hrs
T1 construct: host or cells: HEK293
T1 sequence (P58681 27-1050): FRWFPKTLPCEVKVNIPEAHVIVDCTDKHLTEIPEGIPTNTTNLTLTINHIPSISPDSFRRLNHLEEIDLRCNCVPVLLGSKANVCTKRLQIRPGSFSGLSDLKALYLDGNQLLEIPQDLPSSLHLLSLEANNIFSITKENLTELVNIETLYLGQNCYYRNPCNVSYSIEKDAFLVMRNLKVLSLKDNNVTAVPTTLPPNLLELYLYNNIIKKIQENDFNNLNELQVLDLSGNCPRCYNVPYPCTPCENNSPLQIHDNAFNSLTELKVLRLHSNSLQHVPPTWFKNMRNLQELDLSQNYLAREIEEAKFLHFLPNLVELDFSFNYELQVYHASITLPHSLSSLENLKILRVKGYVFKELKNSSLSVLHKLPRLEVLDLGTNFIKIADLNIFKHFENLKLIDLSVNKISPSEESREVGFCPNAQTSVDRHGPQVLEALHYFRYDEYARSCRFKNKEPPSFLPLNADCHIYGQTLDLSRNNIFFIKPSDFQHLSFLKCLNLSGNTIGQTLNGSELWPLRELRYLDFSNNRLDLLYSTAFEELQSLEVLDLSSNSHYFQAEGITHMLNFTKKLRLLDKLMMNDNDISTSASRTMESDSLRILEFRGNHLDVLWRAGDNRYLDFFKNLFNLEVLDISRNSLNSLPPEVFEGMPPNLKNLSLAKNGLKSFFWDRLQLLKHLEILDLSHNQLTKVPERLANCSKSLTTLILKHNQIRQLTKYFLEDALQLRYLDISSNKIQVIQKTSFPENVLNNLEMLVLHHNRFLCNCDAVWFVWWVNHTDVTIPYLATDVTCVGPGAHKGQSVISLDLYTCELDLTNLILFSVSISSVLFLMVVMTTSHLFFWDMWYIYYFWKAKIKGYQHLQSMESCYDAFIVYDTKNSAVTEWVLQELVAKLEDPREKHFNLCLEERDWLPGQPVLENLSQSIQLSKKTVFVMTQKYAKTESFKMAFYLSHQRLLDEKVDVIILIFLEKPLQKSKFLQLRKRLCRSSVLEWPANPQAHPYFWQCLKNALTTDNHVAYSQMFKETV
Protocol: (§1) In this example, the in vitro activity of compounds to activate human TLR7 (or human TLR8 or mouse TLR7) pathway was evaluated on HEK293 reporter cells transfected with human TLR7 (or human TLR8 or mouse TLR7) and an inducible SEAP (secreted embryonic alkaline phosphatase) reporter gene. The SEAP reporter gene is placed under the control of the IFN-β minimal promoter fused to five NF-κB and AP-1-binding sites. Stimulation with a TLR7 agonist activates NF-κB and AP-1 which induces the production of SEAP. Levels of SEAP were determined by HEK-Blue Detection medium.
(§2) The in vitro activity of compounds on TLR7 (human and mouse) and TLR8 (human only) reporter cell lines was assessed as follows. 5-(2-methoxy-4-(piperazin-1-ylmethyl)benzyl)-N4-pentyl-5H-pyrrolo[3,2-d]pyrimidine-2,4-diamine (Compound 1) is a compound used for comparison and has the structure shown below:
(§3) HEK293-humanTLR7 (hTLR7), HEK293-mouseTLR7 (mTLR7) and HEK293-humanTLR8 (hTLR8) reporter cell lines were purchased from Invivogen and cell lines were maintained in the manufacturer's recommended culture medium with required supplemental antibiotics. On the day of assay, the cells were harvested with Accutase and counted by the Vi-CELL Cell Viability Analyzers. Cells were resuspended in HEK blue detection medium and a total of 10,000 cells were seeded in each well of a 384-well flat bottom plate. Serial dilutions of test compounds (1:4 serial dilution starting from 5 μM) were added into treatment wells and assay plates were cultured at 37° C. in a CO2 incubator for 24 hrs. The plates were then read by spectrophotometry at 640 nm. Data was fitted with non-linear regression analysis, using a log(inhibitor) vs. response-variable slope, 3-parameter fit with GraphPad Prism. There result was reported in Table 1 as EC50 (the midpoint of the curve, or concentration at which 50% of the maximum effect was observed).

[2] = target: T2, human TLR7 (Homo sapiens, UniProt Q9NYK1); experiment: HEK293-humanTLR7 SEAP reporter assay (Example 8); settings: HEK293-hTLR7 SEAP reporter cells, 24 hrs
T2 construct: host or cells: HEK293
T2 sequence (Q9NYK1 27-1049): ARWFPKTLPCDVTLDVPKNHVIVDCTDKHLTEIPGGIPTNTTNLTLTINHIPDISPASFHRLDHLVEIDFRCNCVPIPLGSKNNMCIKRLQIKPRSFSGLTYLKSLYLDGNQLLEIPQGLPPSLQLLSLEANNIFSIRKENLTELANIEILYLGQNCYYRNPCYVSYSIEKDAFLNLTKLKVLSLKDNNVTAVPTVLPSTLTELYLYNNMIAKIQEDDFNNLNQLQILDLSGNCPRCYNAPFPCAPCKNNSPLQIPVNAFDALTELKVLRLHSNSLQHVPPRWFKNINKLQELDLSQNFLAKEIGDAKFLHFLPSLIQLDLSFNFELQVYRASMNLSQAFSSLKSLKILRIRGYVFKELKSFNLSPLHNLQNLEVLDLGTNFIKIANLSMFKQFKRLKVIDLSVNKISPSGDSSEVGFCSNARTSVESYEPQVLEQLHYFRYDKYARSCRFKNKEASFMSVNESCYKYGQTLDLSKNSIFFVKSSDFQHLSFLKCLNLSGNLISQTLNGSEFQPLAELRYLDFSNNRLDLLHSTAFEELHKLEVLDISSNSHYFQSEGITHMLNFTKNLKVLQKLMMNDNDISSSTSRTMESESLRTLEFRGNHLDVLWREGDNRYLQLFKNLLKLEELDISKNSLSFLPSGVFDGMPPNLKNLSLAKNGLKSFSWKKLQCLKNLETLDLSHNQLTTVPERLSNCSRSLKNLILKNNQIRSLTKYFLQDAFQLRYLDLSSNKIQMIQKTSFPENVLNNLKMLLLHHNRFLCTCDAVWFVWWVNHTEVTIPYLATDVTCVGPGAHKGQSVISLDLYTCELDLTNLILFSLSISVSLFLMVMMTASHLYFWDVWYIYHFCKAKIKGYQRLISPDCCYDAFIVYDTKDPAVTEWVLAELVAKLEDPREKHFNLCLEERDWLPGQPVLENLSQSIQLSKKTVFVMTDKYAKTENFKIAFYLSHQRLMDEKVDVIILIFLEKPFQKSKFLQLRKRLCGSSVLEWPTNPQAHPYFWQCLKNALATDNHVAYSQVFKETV
Protocol: as §1, §2, §3

[3] = target: T3, human TLR8 (Homo sapiens, UniProt Q9NR97); experiment: HEK293-humanTLR8 SEAP reporter assay (Example 8); settings: HEK293-hTLR8 SEAP reporter cells, 24 hrs
T3 construct: host or cells: HEK293
T3 sequence (Q9NR97 27-1041): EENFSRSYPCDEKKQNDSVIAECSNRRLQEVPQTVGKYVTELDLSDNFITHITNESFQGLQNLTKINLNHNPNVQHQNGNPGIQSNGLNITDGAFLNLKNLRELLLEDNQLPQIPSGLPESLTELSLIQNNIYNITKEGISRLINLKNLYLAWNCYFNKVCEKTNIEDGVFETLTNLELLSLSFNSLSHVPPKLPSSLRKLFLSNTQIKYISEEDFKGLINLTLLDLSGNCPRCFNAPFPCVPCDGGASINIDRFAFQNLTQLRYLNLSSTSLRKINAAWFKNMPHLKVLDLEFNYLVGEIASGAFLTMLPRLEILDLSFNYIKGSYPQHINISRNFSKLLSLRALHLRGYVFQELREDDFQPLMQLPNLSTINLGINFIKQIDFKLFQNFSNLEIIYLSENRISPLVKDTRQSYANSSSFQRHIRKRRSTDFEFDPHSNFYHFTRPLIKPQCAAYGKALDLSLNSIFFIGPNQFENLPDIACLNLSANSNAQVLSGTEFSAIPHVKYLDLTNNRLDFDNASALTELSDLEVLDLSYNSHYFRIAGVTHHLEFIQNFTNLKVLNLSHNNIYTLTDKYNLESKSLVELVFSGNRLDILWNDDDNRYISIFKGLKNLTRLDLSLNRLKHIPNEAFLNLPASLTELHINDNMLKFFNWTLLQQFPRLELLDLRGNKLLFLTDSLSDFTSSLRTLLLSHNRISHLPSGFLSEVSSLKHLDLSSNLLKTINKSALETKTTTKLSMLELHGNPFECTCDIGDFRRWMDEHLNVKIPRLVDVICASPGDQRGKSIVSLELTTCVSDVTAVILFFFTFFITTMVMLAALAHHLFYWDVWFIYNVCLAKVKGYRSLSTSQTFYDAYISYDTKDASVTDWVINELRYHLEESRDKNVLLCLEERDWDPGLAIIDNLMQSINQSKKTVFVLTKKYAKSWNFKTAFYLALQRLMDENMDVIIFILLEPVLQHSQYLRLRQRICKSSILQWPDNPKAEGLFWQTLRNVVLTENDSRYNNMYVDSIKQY
Protocol: as §1, §2, §3

`CCCCCNc1nc(N)nc2ccn(Cc3ccc(CN4CC5(C4)CN(C(=O)OC(C)(C)C)CCO5)cc3OC)c12` [Compound 1.7, tert-butyl 2-[[4-[[2-amino-4-(pentylamino)pyrrolo[3,2-d]pyrimidin-5-yl]methyl]-3-methoxy-phenyl]methyl]-5-oxa-2,8-diazaspiro[3.5]nonane-8-carboxylate] showed an EC50 [1] of 6.7 nM, an EC50 [2] of 0.1 nM and an EC50 [3] greater than 5000 nM.
In the case of `CNC1CN(Cc2ccc(Cn3ccc4nc(N)nc(NCc5nocc5C)c43)c(OC)c2)C1` [Compound 5], the EC50 [2] is reported as 1010 nM and the EC50 [3] is reported as greater than 5000 nM.
Compound `CNC1CN(Cc2ccc(Cn3ccc4nc(N)nc(NCc5cc(C)on5)c43)c(OC)c2)C1` [Compound 6, 5-(2-methoxy-4-((3-(methylamino)azetidin-1-yl)methyl)benzyl)-N4-((5-methylisoxazol-3-yl)methyl)-5H-pyrrolo[3,2-d]pyrimidine-2,4-diamine] has an EC50 [1] greater than 5000 nM, an EC50 [2] greater than 5000 nM and an EC50 [3] greater than 5000 nM.
Compound `CCCCCNc1nc(N)nc2ccn(Cc3ccc(CN4CC(N)C4)cc3OC)c12` [Compound 13, 5-(4-((3-aminoazetidin-1-yl)methyl)-2-methoxybenzyl)-N4-pentyl-5H-pyrrolo[3,2-d]pyrimidine-2,4-diamine] has an EC50 [1] of 2.7 nM, an EC50 [2] of 0.5 nM and an EC50 [3] of 374 nM.
`CCCCCNc1nc(N)nc2ccn(Cc3ccc(CN4CCC5(CCNCC5)CC4)cc3OC)c12` [compound 7] showed an EC50 [1] of 112 nM, an EC50 [2] of 48.8 nM and an EC50 [3] greater than 5000 nM.
`CCCCCNc1nc(N)nc2ccn(Cc3ccc(CN4CC5(CCNCC5)C4)cc3OC)c12` [compound 8] gave an EC50 [1] of 17.6 nM, an EC50 [2] of 16.5 nM and an EC50 [3] greater than 5000 nM.
`CCCCCNc1nc(N)nc2ccn(Cc3ccc(CN4CC5(CNC5)C4)cc3OC)c12` [compound 9] gave an EC50 [1] of 16.2 nM, an EC50 [2] of 13.4 nM and an EC50 [3] of 1140 nM.
With `CCCCCNc1nc(N)nc2ccn(Cc3ccc(CN4CC(C5CCNCC5)C4)cc3OC)c12` [compound 11] the EC50 [1] was 222 nM, the EC50 [2] was 92.3 nM and the EC50 [3] was greater than 5000 nM.
`CCCCCNc1nc(N)nc2ccn(Cc3ccc(CN4CCC(c5nnc6n5CCNC6)CC4)cc3OC)c12` [compound 12] gave an EC50 [2] of 370 nM and an EC50 [3] greater than 5000 nM.
Compound `CCCCCNc1nc(N)nc2ccn(Cc3ccc(CN4CC5CCCC(C4)NC5)cc3OC)c12` (stereo not shown) [compound 14] has an EC50 [1] of 322 nM, an EC50 [2] of 108 nM and an EC50 [3] greater than 5000 nM.
With `CCCCCNc1nc(N)nc2ccn(Cc3ccc(CN4CC5CCC4CN5)cc3OC)c12` (stereo not shown) [compound 15] the EC50 [1] was 24.6 nM, the EC50 [2] was 4.8 nM and the EC50 [3] was greater than 5000 nM.

Reference: patent publication US12534465B2, “5H-pyrrolo[3,2-d]pyrimidine-2,4-diamino compounds and antibody conjugates thereof” (SUTRO BIOPHARMA, INC., priority 2019, dated 2026)
